Measurements as given in patent US10501514B2, “Cyclic galanin-analogs and uses thereof” (LanthioPep B.V., priority 2015, dated 2019).
Like-named read-outs stand apart in the source and are kept apart here.

How the values were obtained:
GalR1 [1] = target: T1, GalR1 (Homo sapiens, UniProt P47211)
T1 sequence (P47211 1-349): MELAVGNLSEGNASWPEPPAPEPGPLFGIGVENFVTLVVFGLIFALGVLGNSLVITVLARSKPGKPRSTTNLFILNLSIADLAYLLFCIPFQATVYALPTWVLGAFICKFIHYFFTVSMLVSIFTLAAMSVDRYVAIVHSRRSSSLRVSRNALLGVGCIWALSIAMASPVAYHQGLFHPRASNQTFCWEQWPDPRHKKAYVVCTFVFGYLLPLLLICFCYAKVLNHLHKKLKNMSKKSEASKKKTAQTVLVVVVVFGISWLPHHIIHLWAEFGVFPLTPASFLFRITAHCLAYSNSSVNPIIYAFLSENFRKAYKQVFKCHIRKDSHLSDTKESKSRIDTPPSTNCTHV
Description: (§1) The biological activity of the (lanthi)galanins was determined in CHO-K1 cell lines that express either the GalR1, or GalR2 receptor. Activity measurements were performed using commercial kits from DiscoverX for determining arrestin recruitment (GalR1, GalR2) and inhibition of cAMP synthesis (GalR1). In addition, HEK293 cell lines that express the GalR2 receptor have been used for methods from Molecular Probes to measure calcium efflux (GalR2).
(§2) ND indicates ‘not determined’.
(§3) Peptide was dissolved in 0.3% ammonia. Peptides were incubated o/n at 37° C. for the introduction of the lanthionine via base assisted sulfur extrusion of the disulfide bridged peptide. […] Different isomers were purified and lyophilized. Dry peptides were dissolved in 100 mM phosphate buffer pH=7.6 and peptides were incubated o/n at 50° C. After HPLC purification peptides with a pE formation were selected and used in the different Galanin receptor activation assays.

GalR2 = target: T2, GalR2 (Homo sapiens, UniProt O43603); assay type: cell-based
T2 construct: expressed in transfected cells; host or cells: HEK293
T2 sequence (O43603 1-387): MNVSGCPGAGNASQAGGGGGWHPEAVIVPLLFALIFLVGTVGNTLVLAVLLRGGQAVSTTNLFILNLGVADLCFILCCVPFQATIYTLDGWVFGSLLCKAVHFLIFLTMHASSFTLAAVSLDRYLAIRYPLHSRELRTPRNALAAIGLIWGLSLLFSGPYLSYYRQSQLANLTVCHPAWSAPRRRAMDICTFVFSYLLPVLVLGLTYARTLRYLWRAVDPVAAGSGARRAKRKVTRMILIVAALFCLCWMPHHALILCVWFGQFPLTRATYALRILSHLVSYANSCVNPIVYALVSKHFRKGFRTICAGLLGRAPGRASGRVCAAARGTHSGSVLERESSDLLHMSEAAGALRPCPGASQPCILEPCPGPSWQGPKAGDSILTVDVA
Description: as §2
Peptide was dissolved in 0.3% ammonia. […] Different isomers were purified and lyophilized.

[2] = test system: Galanin receptor (GalR1, GalR2); experiment: Galanin receptor activation assays, overall statements in words; assay type: cell-based; settings: overall statement on galanin receptor activation
Description: as §1
Peptide was dissolved in 0.3% ammonia. Peptides were incubated o/n at 37° C. for the introduction of the lanthionine via base assisted sulfur extrusion of the disulfide bridged peptide. Different isomers could be isolated by HPLC applying the same method as was used as for the biologically produced peptides. Different isomers were purified and lyophilized. Dry peptides were dissolved in 100 mM phosphate buffer pH=7.6 and peptides were incubated o/n at 50° C. After HPLC purification peptides with a pE formation were selected and used in the different Galanin receptor activation assays.

GalR1 [3] = target: T1, GalR1; experiment: inhibition of cAMP synthesis in CHO-K1 cells expressing GalR1 (DiscoverX kit); assay type: cell-based; parameters: host or cells: CHO-K1; settings: Table 2; variants chemically obtained by base-assisted sulfur extrusion; 'no' wraps to 'activity' = no activity
Description: as §1, §2, §3

| Ratio EC50s relative to Gal-(1-15), GalR1 β-Arrestin (GalR1 [1]) | Ratio EC50s relative to Gal-(1-15), GalR2 Ca efflux (GalR2) | Ratio EC50s relative to Gal-(1-15), GalR2 β-Arrestin (GalR2) | activity, in words [2] | Ratio EC50s relative to Gal-(1-15), GalR1 cAMP inhibition (GalR1 [3]) | Ratio EC50s relative to Gal-(1-15), GalR1 β-Arrestin (GalR1 [1]; Table 2, variants chemically obtained by base-assisted sulfur extrusion, 'no' wraps to 'activity' = no activity) | Structure (SMILES) |
| --- | --- | --- | --- | --- | --- | --- |
| 39 | 1.4 | 2.3 | highly active | no | – | CC(C)C[C@H](NC(=O)[C@H](CC(C)C)NC(=O)[C@H](Cc1ccc(O)cc1)NC(=O)CNC(=O)[C@H](C)NC(=O)[C@H](C)NC(=O)[C@H](CC(N)=O)NC(=O)[C@H](CC(C)C)NC(=O)[C@H](CC(N)=O)NC(=O)[C@H](Cc1c[nH]c2ccccc12)NC(=O)[C@@H]1CCC(=O)N1)C(=O)NCC(=O)N1CCC[C@H]1C(=O)NC1CSCC(C(=O)O)NC(=O)[C@H](C(C)C)NC(=O)[C@H](C)NC1=O (single isomer, unassigned) [4178 B] |
| – | 94 | – | – | no | no | CC(C)C[C@@H]1NC(=O)[C@H](CC(C)C)NC(=O)[C@H](Cc2ccc(O)cc2)NC(=O)C(NC(=O)[C@H](C)NC(=O)[C@H](C)NC(=O)[C@H](CC(N)=O)NC(=O)[C@H](CC(C)C)NC(=O)[C@@H](NC(=O)[C@H](Cc2c[nH]c3ccccc23)NC(=O)[C@@H]2CCC(=O)N2)[C@@H](C)O)CSCC(C(=O)O)NC1=O (single isomer, unassigned) [4179 A, pEWTLNAAlanYLLlan] |
| >1000 | 11 | 137 | – | no | – | CC(C)C[C@H](NC(=O)[C@H](CC(C)C)NC(=O)[C@H](Cc1ccc(O)cc1)NC(=O)CNC(=O)[C@H](C)NC(=O)[C@H](C)NC(=O)[C@H](CC(N)=O)NC(=O)[C@H](CC(C)C)NC(=O)[C@H](CC(N)=O)NC(=O)[C@H](Cc1c[nH]c2ccccc12)NC(=O)[C@@H]1CCC(=O)N1)C(=O)NCC(=O)N1CCC[C@H]1C(=O)NC1CSCC(C(=O)O)NC(=O)[C@H](C(C)C)NC(=O)[C@H](C)NC1=O (single isomer, unassigned) [4178 A] |
| 720 | 2.6 | 3.8 | high activity | no | – | CC(C)C[C@@H]1NC(=O)[C@H](CC(C)C)NC(=O)[C@H](Cc2ccc(O)cc2)NC(=O)C(NC(=O)[C@H](C)NC(=O)[C@H](C)NC(=O)[C@H](CC(N)=O)NC(=O)[C@H](CC(C)C)NC(=O)[C@@H](NC(=O)[C@H](Cc2c[nH]c3ccccc23)NC(=O)[C@@H]2CCC(=O)N2)[C@@H](C)O)CSCC(C(=O)O)NC1=O (single isomer, unassigned) [4179 B, pEWTLNAAlanYLLlan] |
